Measurements published in US5482971A, “Beta3 -adrenergic agents and their use in pharmaceutical compositions” (American Cyanamid Company, priority 1993, dated 1996).

How the values were obtained:
[1] = target: T1, beta1 -adrenergic receptor (Rattus norvegicus, UniProt P18090); test: Heart binding: β1-effect, membranes from rat heart, [125I]iodocyanopindolol; details: incubation 1 hour
T1 construct: membranes from rat heart; from tissue; host or cells: rat heart membranes
Method: (§1) Selectivity of a compound is determined using the following procedures.
(§2) Binding assays for β1 -effect are carried out by the use of membranes from rat heart, and β2 -effect by the use of membranes from rat lung by the method described in Neve, et at., J. Pharmacol. Exp. Ther., 1985, 235, 657-664 with the following exceptions:
(§3) 1. the incubation volume is 0.5 ml,
(§4) 2. the incubation time is 1 hour,
(§5) 3. the radioligand is [^125 I]iodocyanopindolol,
(§6) 4. (-)-isoproterenol (50 μM) is used to define specific binding, and
(§7) 5. the filters are washed at 4° C.

[2] = target: T2, beta2 -adrenergic receptor (Rattus norvegicus, UniProt P10608); test: Lung binding: β2-effect, membranes from rat lung, [125I]iodocyanopindolol; details: incubation 1 hour
T2 construct: membranes from rat lung; from tissue; host or cells: rat lung membranes
T2 sequence (P10608 whole entry): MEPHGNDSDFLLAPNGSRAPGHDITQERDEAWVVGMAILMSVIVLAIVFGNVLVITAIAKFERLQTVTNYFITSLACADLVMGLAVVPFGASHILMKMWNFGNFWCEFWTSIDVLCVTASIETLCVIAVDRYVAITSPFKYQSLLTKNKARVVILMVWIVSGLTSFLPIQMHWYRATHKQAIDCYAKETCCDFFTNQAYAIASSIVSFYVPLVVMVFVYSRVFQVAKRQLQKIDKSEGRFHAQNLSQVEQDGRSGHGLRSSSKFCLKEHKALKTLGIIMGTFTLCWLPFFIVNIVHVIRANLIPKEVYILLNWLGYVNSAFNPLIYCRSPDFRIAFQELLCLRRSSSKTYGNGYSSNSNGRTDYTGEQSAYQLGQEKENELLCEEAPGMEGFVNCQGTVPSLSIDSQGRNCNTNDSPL
Method: as §1, §2, §3, §4, §5, §6, §7

[3] = target: T3, beta3 -adrenergic receptor (Rattus norvegicus, UniProt P26255); test: β3-effect: stimulation of adipocyte lipolysis (rat epididymal fat pad cells, glycerol release); assay type: cell-based; details: rat epididymal adipocytes, 37° C., 30 minutes; concentration giving 50% of the maximum rate of lipolysis of that compound
T3 construct: Rat epididymal fat pads are excised and placed in 0.9% saline; from tissue; host or cells: collagenase-isolated adipocytes from rat epididymal fat pads
T3 sequence (P26255 whole entry): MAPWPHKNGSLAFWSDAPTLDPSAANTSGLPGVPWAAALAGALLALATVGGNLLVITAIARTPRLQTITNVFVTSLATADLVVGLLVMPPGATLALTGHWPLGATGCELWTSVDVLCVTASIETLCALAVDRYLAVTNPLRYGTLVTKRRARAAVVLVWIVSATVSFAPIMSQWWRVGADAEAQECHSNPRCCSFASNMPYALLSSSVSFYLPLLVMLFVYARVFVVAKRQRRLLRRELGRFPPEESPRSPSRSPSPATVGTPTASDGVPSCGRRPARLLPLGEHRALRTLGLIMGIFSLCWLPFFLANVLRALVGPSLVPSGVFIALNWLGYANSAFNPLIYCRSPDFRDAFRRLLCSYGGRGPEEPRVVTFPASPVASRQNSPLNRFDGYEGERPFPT
Method: as §1
The β3 -effect of the compounds is determined by their ability to stimulate adipocyte lipolysis. Rat epididymal fat pads are excised and placed in 0.9% saline. Four grams of tissue is transferred to a flask with 20 ml of aerated Krebs-Henseleit bicarbonate (KHB) buffer containing 3% fatty acid-free bovine serum albumin to which 75 mg of crude bacterial collagenase (Worthington) has been added. The tissue is incubated for about 45 minutes at 37° C. with gentle shaking. The cells are then washed three times with two volumes of KHB buffer, filtered through two layers of gauze, and brought to a final volume of 80 ml with KHB buffer. One ml aliquots of the cell suspension is added to plastic test tubes containing the appropriate additions of vehicle or compound. The cells are gassed for 1 minute with 95%O2 -5%CO2, capped, and incubated at 37° C. with continuous shaking for a total of 30 minutes. The reaction is stopped by adding 0.1 ml of 30% perchloric acid and 0.1 ml of chloroform. […] The amount of glycerol generated from the hydrolysis of endogenous triglycerides is determined in a coupled-enzyme spectrophotometric assay. […] The amount of NADH generated, which is proportional to the amount of glycerol, is determined by the increase in absorbance at 340 nm. […]

T1 sequence (P18090 whole entry): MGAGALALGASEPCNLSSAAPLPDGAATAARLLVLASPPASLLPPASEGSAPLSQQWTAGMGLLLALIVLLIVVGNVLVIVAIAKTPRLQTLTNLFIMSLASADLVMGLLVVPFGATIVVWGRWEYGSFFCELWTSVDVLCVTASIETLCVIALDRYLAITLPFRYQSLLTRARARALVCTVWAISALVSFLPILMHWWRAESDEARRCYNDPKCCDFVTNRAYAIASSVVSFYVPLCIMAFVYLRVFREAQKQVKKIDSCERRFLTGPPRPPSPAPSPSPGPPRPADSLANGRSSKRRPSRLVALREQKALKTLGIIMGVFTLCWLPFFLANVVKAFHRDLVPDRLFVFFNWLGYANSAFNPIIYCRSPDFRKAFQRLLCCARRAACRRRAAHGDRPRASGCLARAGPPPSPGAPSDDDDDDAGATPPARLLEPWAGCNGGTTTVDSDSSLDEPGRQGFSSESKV

IC50 [1]: 19000 nM | IC50 [2]: 20000 nM | EC50 [3]: 17 nM
SMILES: C[C@H](CCc1ccc2c(c1)OC(C(=O)O)(C(=O)O)O2)NC[C@H](O)c1cccc(Cl)c1 [Example 3, Disodium (R,R)-5-((3-(2-(3-chlorophenyl)-2-hydroxyethyl)amino)butyl)-1,3-benzodioxole-2,2-dicarboxylate]
